Assay results taken from US20130310374A1, “Substituted Imidazoquinoline Derivatives” (PIRAMAL ENTERPRISES LIMITED`, priority 2010, published 2013).

Key:
[1] = system: AsPC 1; experiment: Cytotoxicity propidium iodide assay, AsPC 1; format: cell-based; conditions: Homo sapiens, ASPC1; AsPC 1 (pancreatic), 48 hours treatment; read-out: IC50 Values in μM, C4b
[2] = system: hPBMC; experiment: MTS toxicity assay in parallel to anti-CD3/anti-CD28 cytokine assay; format: cell-based, human; conditions: anti-CD3/anti-CD28 experiment
Method: hPBMC stimulation: Peripheral blood was collected from normal healthy volunteers after informed consent. Peripheral blood mononuclear cells (hPBMC) were harvested using Ficoll-Hypaque density gradient centrifugation (1.077 g/mL; Sigma Aldrich). hPBMCs were resuspended in RPMI 1640 culture medium (Gibco BRL, Pasley, UK) containing 10% FCS, 100 U/mL penicillin (Sigma Chemical Co. St Louis, Mo.) and […] streptomycin (Sigma Chemical Co. St Louis, Mo.) at 1.25×10^6 cells/mL of assay medium. 2.5×10^5 hPBMCs were added per well of 96-well plate coated with or without anti-CD3/anti-CD28 mAbs. Simultaneously, 0.025 μM of compounds of the present invention or 0.5% DMSO (vehicle control) were added to appropriate wells. The cells were then incubated for 18 hours at 37° C., 5% CO2 following which supernatants were collected, stored at […] and assayed later for TNF-α, IL-6 and IFN-γ by ELISA (OptiEIA ELISA sets; BD Biosciences). In every experiment, each condition was run in triplicate wells. In all experiments, the toxicity of test compounds was ascertained, in parallel, using the MTS (3-(4,5-dimethylthiazol-2-yl)-5-(3-carboxymethoxyphenyl)-2-(4-sulfonyl)-2H-tetrazolium) assay as described in Am. J. Physiol. Cell Physiol., 2003, 285, C813-C822.

[3] = system: K562; experiment: Cytotoxicity propidium iodide assay, K562; format: cell-based; conditions: Homo sapiens; K562 (CML), 48 hours treatment; read-out: IC50 Values in μM, C6a
Outline: (§1)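 Compound exposure lasted 48 h at multiple concentrations, after an 18-24 h settling period at 37° C. with 5% CO2. Washed cells received propidium iodide ([…]) and went through an overnight freeze and thaw before fluorimetric reading; IC50 values came from percentages relative to non-treated cells.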

[4] = system: BT 549; experiment: Cytotoxicity propidium iodide assay, BT 549; format: cell-based; conditions: Homo sapiens; BT 549 (breast), 48 hours treatment; read-out: IC50 Values in μM, C3c
Outline: as §1

[5] = system: T315I; experiment: Cytotoxicity propidium iodide assay, T315I; format: cell-based; conditions: T315I (CML), 48 hours treatment; read-out: IC50 Values in μM, C6b
Method: (§2) The assay was designed as in the reference, Anticancer Drugs, 2002, 13, 1-8, the disclosure of which is incorporated herein by reference for the teaching of the assay.
(§3) Cells from cell lines (ATCC) as mentioned in the table given below were seeded at a density of 3000 cells/well in a white opaque 96-well plate. Following incubation at 37° C./5% CO2 for a period of 18-24 hours, the cells were treated with various concentrations (stock solution was prepared in DMSO and subsequent dilutions were made in media as per ATCC guidelines) of the compounds of the present invention for a period of 48 hours. At the end of treatment, the culture medium was discarded, the cells were washed with 1×PBS and 200 μL of […] propidium iodide was added to each well. The plates were frozen at […] overnight. For analysis, the plates were warmed to RT, allowed to thaw and were read in PoleStar fluorimeter with the fluorescence setting. The percentage of viable cells in the non-treated set of wells was considered to be 100 and the percentage viability following treatment was calculated accordingly. IC50 values were calculated from graphs plotted using these percentages. IC50 values for certain compounds of present invention are depicted in Table 1 and % Inhibition of certain compounds of present invention are depicted in Table 2.

[6] = system: MCF7; experiment: Cytotoxicity propidium iodide assay, MCF7; format: cell-based; conditions: Homo sapiens; MCF7 (breast), 48 hours treatment; read-out: IC50 Values in μM, C3d
Outline: as §1

[7] = system: LN229; experiment: Cytotoxicity propidium iodide assay, LN229; format: cell-based; conditions: Homo sapiens, LN-229; LN229 (glioblastoma), 48 hours treatment; read-out: IC50 Values in μM, C5a
Method: as §2, §3

[8] = system: PI3K/mTOR pathway; experiment: Western blot analysis in A2780 ovarian cancer cell line; format: cell-based; conditions: A2780 cells treated for 1 hour; FIG. 1A-1E
Method: Protocol for Western Blot Analysis
A2780 ovarian cancer cell line (ATCC) were grown to approximately 70% confluence in 100-mm tissue culture dishes and then treated for 1 hour with […] compounds of Example 2, 3, 5, 16, 19, 55 and 59. Total protein was extracted using cell lysis buffer (NaCl […], NP40 0.67%, Tris-Cl, pH 7.5, 67 mM) containing protease inhibitors and phosphatase inhibitors (Beta-glycerol phosphate 40 mM, DTT 1 mM, NaF 0.4 mM, Sodium-Orthovanadate 0.4 mM) at 4° C. for 1 hour. Cell lysates were then centrifuged at 2×10^4 g for 10 minutes at 4° C., and the protein concentration of the supernatant was quantified using the Bradford's method (BioRad, USA). For SDS-PAGE, 50 μg protein was loaded in SDS-PAGE, transferred to a polyvinylidene difluoride membrane (Bio-Rad, USA) and blocked with 5 mL buffer [5% skim milk and 0.1% Tween] for 1 hour 30 minutes. Membrane were probed with primary antibody (all primary antibodies were from cell signaling with 1:1000 in TBST solution) of respective protein at 4° C. overnight. Peroxidase-labeled anti-rabbit or anti-mouse antibodies (Santacruze, USA) were used as the secondary antibody. Actin and respective whole protein levels were used as the control for protein loading. Protein antigens were detected using Chemiluminescent Substrate (Thermo scientific, USA) and exposed on Kodak station.

Row | SMILES | IC50 [1] [µM] | % Toxicity at 0.025 μM [2] [%] | IC50 [3] [µM] | IC50 [4] [µM] | IC50 [5] [µM] | IC50 [6] [µM] | IC50 [7] [µM] | Akt, S6 and 4EBP1 phosphorylation (Western blot) [8]
1 | CC(C)(C#N)c1ccc(-n2c(=O)n(CC#N)c3cnc4ccc(-c5cnc(N)c(C(F)(F)F)c5)cc4c32)cn1 [Example 16, 2-(5-(8-(6-Amino-5-(trifluoromethyl)pyridin-3-yl)-3-(cyanomethyl)-2-oxo-2,3-dihydro-1H-imidazo[4,5-c]quinolin-1-yl)pyridin-2-yl)-2-methylpropanenitrile] | 0.038 | 0 | 0.4 | 0.015 | 2.13 | 0.03 | 0.65 | inhibit Akt, S6 and 4EBP1 phosphorylation
2 | Cn1c(=O)n(-c2ccc(C(C)(C)C#N)nc2)c2c3cc(-c4cnc5ccccc5c4)ccc3ncc21 [Example 2, 2-Methyl-2-(5-(3-methyl-2-oxo-8-(quinolin-3-yl)-2,3-dihydro-1H-imidazo[4,5-c]quinolin-1-yl)pyridin-2-yl)propanenitrile] | 0.09 | 12 |  | 0.9 |  | 0.09 | 0.55 | inhibit Akt, S6 and 4EBP1 phosphorylation
3 | COc1ccc(-n2c(=O)n(C)c3cnc4ccc(-c5cnc(N)c(C(F)(F)F)c5)cc4c32)cn1 [Example 19, 8-(6-Amino-5-(trifluoromethyl)pyridin-3-yl)-1-(6-methoxypyridin-3-yl)-3-methyl-1H-imidazo[4,5-c]quinolin-2(3H)-one] | 0.1 | 19 | 0.056 | 0.23 | 0.049 | 0.054 | 0.096 | inhibit Akt, S6 and 4EBP1 phosphorylation
4 | CS(=O)(=O)O.Cn1c(=O)n(-c2ccc(C(C)(C)C#N)nc2)c2c3cc(-c4cnc(N)c(C(F)(F)F)c4)ccc3ncc21 [Example 3a, 8-(6-Amino-5-(trifluoromethyl)pyridin-3-yl)-1-(6-(2-cyanopropan-2-yl)pyridin-3-yl)-3-methyl-2-oxo-2,3-dihydro-1H-imidazo[4,5-c]quinolin-5-ium methanesulfonate] |  |  |  |  |  |  |  | inhibit Akt, S6 and 4EBP1 phosphorylation
5 | Cn1c(=O)n(-c2ccc(C(C)(C)C#N)nc2)c2c3cc(-c4cnc(N)c(C(F)(F)F)c4)ccc3ncc21 [Example 3, 2-(5-(8-(6-Amino-5-(trifluoromethyl)pyridin-3-yl)-3-methyl-2-oxo-2,3-dihydro-1H-imidazo[4,5-c]quinolin-1-yl)pyridin-2-yl)-2-methylpropanenitrile] | 0.019 | 24 | 0.056 | 0.03 | 0.32 | 0.026 | 0.056 | inhibit Akt, S6 and 4EBP1 phosphorylation
